# Target: T1, h-11βHSD1 (Homo sapiens, UniProt P28845)
# T1 construct: made in house; host or cells: yeast (extract of transformed yeast)
# Experiment: 11βHSD1 enzyme assay (SPA)
# Assay type: biochemical
# Conditions: extract of yeast transformed with h-11βHSD1; 120 nM 3H-cortisone, 4 mM β-NADPH, 60 min at 30° C.
# Protocol: ^3H-cortisone and anti-rabbit Ig coated scintillation proximity assay (SPA) beads were purchased from Amersham Pharmacia Biotech, β-NADPH was from Sigma and rabbit anti-cortisol antibodies were from Fitzgerald. An extract of yeast transformed with h-11βHSD1 (Hult et al., FEBS Lett. 441, 25 (1998)) was used as the source of enzyme. The test compounds were dissolved in DMSO (10 mM). All dilutions were performed in a buffer containing 50 mM TRIS-HCl (Sigma Chemical Co), 4 mM EDTA (Sigma Chemical Co), 0.1% BSA (Sigma Chemical Co), 0.01% Tween-20 (Sigma Chemical Co) and 0.005% bacitracin (Novo Nordisk A/S), pH=7.4. Optiplate 96 wells plates were supplied by Packard. The amount of ^3H-cortisol bound to the SPA beads was measured on TopCount NXT, Packard.
# h-11βHSD1, 120 nM ^3H-cortisone, 4 mM β-NADPH, antibody (1:200), serial dilutions of test compound and SPA particles (2 mg/well) were added to the wells. The reaction was initiated by mixing the different components and was allowed to proceed under shaking for 60 min at 30° C. […] Data was analysed using GraphPad Prism software.
# T1 sequence (P28845 whole entry): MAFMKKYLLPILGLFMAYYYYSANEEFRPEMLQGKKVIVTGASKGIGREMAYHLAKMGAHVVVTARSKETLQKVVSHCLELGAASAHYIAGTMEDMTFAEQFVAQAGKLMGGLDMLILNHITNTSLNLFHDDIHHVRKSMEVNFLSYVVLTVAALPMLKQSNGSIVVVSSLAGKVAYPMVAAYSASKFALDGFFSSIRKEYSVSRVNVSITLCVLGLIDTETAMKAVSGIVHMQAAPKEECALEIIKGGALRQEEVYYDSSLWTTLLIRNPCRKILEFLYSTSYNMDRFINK
row,IC50 [nM],Structure (SMILES)
1,230,"Brc1ccccc1-c1nnc2n1CCCCC2 [Example 1, 3-(2-Bromo-phenyl)-6,7,8,9-tetrahydro-5H-[1,2,4]triazolo[4,3-a]azepine]"
2,110,c1ccc(OCc2ccccc2-c2nnc3n2CCCCC3)cc1 [Example 1-a]

# Source: patent US7723323B2, “Pharmaceutical use of fused 1,2,4-triazoles” (High Point Pharmaceuticals, LLC, priority 2003, dated 2010)
